Where “and” joins values, the source holds several entries; their conditions need not be identical. Equal values may be shown once. Read-outs that look alike come from different tables or passages of the source.

Data set [1] in a line: Water activity (Pawkit water activity meter). Type of data set: physicochemical. As to conditions: sorbitol 9.9 molal, fructose 16.6 molal, sucrose 5.3 molal. The procedure:
A Pawkit water activity meter uses a dielectric humidity sensor to measure the water activity (aw) of a sample. The unit is accurate to ±0.02 aw. The water activity meter was calibrated, using a 6.0 molal NaCl solution, before each new set of measurements was taken. Each sample was measured in duplicate.

The nature of data set [2]: Viscosity measurements (Bohlin Rheometer), screening and optimization phases. The class given is physicochemical. As to conditions: sorbitol 9.9 molal, fructose 16.6 molal, sucrose 5.3 molal (highest concentrations studied). Here is the method: 2. Viscosity Measurements
In the screening and optimization phases, described below, viscosity measurements were made using a Bohlin Rheometer, under the following conditions: a 10.0 pascal sheer stress and a continuous, single sweep type at a temperature of 25.0° C.

For data set [3] the following is noted: cited from earlier work.

With `OC[C@H]1O[C@@](CO)(O[C@H]2O[C@H](CO)[C@@H](O)[C@H](O)[C@H]2O)[C@@H](O)[C@@H]1O` [sucrose], the “Water activity of solution” value in data set [1] is on record as 0.86. Also, the Viscosity of solution in data set [2] is 119 cps.
Turning to `OC[C@@H](O)[C@@H](O)[C@H](O)[C@@H](O)CO` [sorbitol], the “Water activity of solution” value in data set [1] came out at 0.81. The molecule further gave a Viscosity of solution in data set [2] of 48 cps. Further, the “Dosage with laxative effect” value in data set [3] (adults) is not below 20 grams/day; in data set [3] (children) it was “greater than 0.5 g/kg body weight”.
Consider `O=C(CO)[C@@H](O)[C@H](O)[C@H](O)CO` [fructose], for which the “Water activity of solution” value in data set [1] was found to be 0.70. In addition, the Viscosity of solution in data set [2] was 429 cps and 439 cps.
